{"source": "patent US6620985B1", "about": "“PAD4 nucleic acid compositions from Arabidopsis and methods therefor” (University of Maryland Biotechnology Institute, priority 1998, dated 2003)", "key": {"[1]": {"tested_on": "Psm ES4326", "assay": "Psm ES4326 growth in plants sprayed with SA", "format": "in vivo, Pseudomonas syringae pv maculicola", "conditions": "5 mM SA sprayed one day before infection; titer three days after infection; wild-type and pad4-1", "description": "(§1) Inoculations with Bacteria and Treatment with Chemicals. Pseudomonas syringae pv maculicola (Psm) ES4326 (Dong et al., 1991, Plant Cell 3, 61-72; Crute et al., 1994, in Arabidopsis, eds. Meyerowitz & Somerville, Cold Spring Harbor Press, NY, pp. 705-747), Pseudomonas. syringae pv tomato (Pst) DC3000 (Cuppels, 1986, Appl. Environ. Microbiol. 52, 323-327) and Xanthomonas campestris pv campestris (Xcc) BP109 (Weiss et al., 1994, J. Bacteriol. 176, 3354-3359) have been described. The avirulence gene avrRpt2 was carried on plasmid pLH12 as described (Dong et al., 1991, Plant Cell 3, 61-72; Whalen et al., 1991, Plant Cell 3, 49-59). P. syringae strains were grown in King's B medium supplemented with appropriate antibiotics (Glazebrook and Ausubel, 1994, Proc. Natl. Acad. Sci. USA 91, 8955-8959), and Xcc BP1 09 was grown in Luria-Bertani medium supplemented with 50 μg/mL rifampicin. Bacteria were infiltrated into Arabidopsis plants as described (Glazebrook and Ausubel, 1994, PNAS USA 91, 8955-8959; Glazebrook et al., 1996, Genetics 146: 381-392). For camalexin assays, the bacterial dose for P. syringae strains was 3×10^4 colony-forming units (cfu)/cm^2 leaf area (equivalent to OD600=0.006); for Xcc BP109 it was 5×10^5 cfu/cm^2 (OD600=0.1). […]"}, "[2]": {"tested_on": "camalexin synthesis", "assay": "Camalexin assay in Psm ES4326-infected leaves", "format": "in vivo, Arabidopsis thaliana", "conditions": "SA sprayed one day before Psm ES4326 infection, assayed two days after infection", "description": "as §1\nPhytoalexin Quantitation. […]"}, "[3]": {"tested_on": "PR-1", "assay": "PR-1 expression (RNA blot) after SA treatment", "format": "in vivo, Arabidopsis thaliana", "description": "Plants and Growth Conditions. Wild-type plants (Arabidopsis thaliana ecotype Columbia (Col)) and pad4 plants from a line that had been backcrossed four times to the wild-type parent (Col) (Glazebrook et al., 1996, Genetics 143, 973-982) were used in this study. Arabidopsis ecotype Keswick (Ksk) was provided by Eric Holub (Horticulture Research International, Warwick, UK). Arabidopsis ecotype Landsberg erecta (Ler) plants carrying the nahG transgene were provided by Xinnian Dong (Bowling et al., 1994, Plant Cell 6, 1845-1857). nahG mutant plants used in this example, and all other examples, were of the Ler ecotype. Plants were grown in pots in Metro-Mix 200 soil (Scotts-Sierra Horticultural Products Company, Marysville, Ohio) in a growth chamber (22±2° C., 85% relative humidity, 100 μE s^−1 m^−2 fluorescent illumination) on a 12-hr light/dark cycle. Fully-expanded leaves of four-week old plants were used.\nInoculations with Bacteria and Treatment with Chemicals. Pseudomonas syringae pv maculicola (Psm) ES4326 (Dong et al., 1991, Plant Cell 3, 61-72; Crute et al., 1994, in Arabidopsis, eds. Meyerowitz & Somerville, Cold Spring Harbor Press, NY, pp. 705-747), Pseudomonas. syringae pv tomato (Pst) DC3000 (Cuppels, 1986, Appl. Environ. Microbiol. 52, 323-327) and Xanthomonas campestris pv campestris (Xcc) BP109 (Weiss et al., 1994, J. Bacteriol. 176, 3354-3359) have been described. […]"}, "[4]": {"tested_on": "PAD4 mRNA", "assay": "PAD4 RNA blot analysis after SA treatment", "format": "in vivo, Arabidopsis thaliana", "conditions": "5 mM SA", "description": "Inoculations with Bacteria and Treatment with Chemicals. Pseudomonas syringae pv maculicola (Psm) ES4326 (Dong et al., 1991, Plant Cell 3, 61-72; Crute et al., 1994, in Arabidopsis, eds. Meyerowitz & Somerville, Cold Spring Harbor Press, NY, pp. 705-747), Pseudomonas. syringae pv tomato (Pst) DC3000 (Cuppels, 1986, Appl. Environ. Microbiol. 52, 323-327) and Xanthomonas campestris pv campestris (Xcc) BP109 (Weiss et al., 1994, J. Bacteriol. 176, 3354-3359) have been described. The avirulence gene avrRpt2 was carried on plasmid pLH12 as described (Dong et al., 1991, Plant Cell 3, 61-72; Whalen et al., 1991, Plant Cell 3, 49-59). P. syringae strains were grown in King's B medium supplemented with appropriate antibiotics (Glazebrook and Ausubel, 1994, Proc. Natl. Acad. Sci. USA 91, 8955-8959), and Xcc BP1 09 was grown in Luria-Bertani medium supplemented with 50 μg/mL rifampicin. Bacteria were infiltrated into Arabidopsis plants as described (Glazebrook and Ausubel, 1994, PNAS USA 91, 8955-8959; Glazebrook et al., 1996, Genetics 146: 381-392). For camalexin assays, the bacterial dose for P. syringae strains was 3×10^4 colony-forming units (cfu)/cm^2 leaf area (equivalent to OD600=0.006); for Xcc BP109 it was 5×10^5 cfu/cm^2 (OD600=0.1). For experiments involving extraction of total RNA from infected leaves, Psm ES4326 and Psm ES4326 carrying avrRpt2 were introduced at a dose of 10^4 cfu/cm^2 leaf area (equivalent to OD600=0.002). For determination of Psm ES4326 growth, plants were infected with Psm ES4326 at a dose of 10^3 cfu/cm^2 leaf area (equivalent to OD600=0.0002). After […] were excised and bacterial growth was assayed as described (Glazebrook et al., 1996, Genetics 143, 973-982). Data are reported as means and standard deviations of the log(cfu/cm^2) of six replicates. For chemical treatment, plants were sprayed with 5 mM SA or 5 mM silver nitrate with 0.02% Silwet L-77 (Lehle Seeds, Tucson, Ariz.) to reduce surface tension. Control plants were sprayed with water containing 0.02% Silwet L-77.\nPAD4 RNA Blot Analysis. […]"}}}
{"smiles": "O=C(O)c1ccccc1O", "note": "[SA, salicylic acid]", "values": [{"measurement": "resistance to Psm ES4326 (bacterial titer)", "setting": "[1]", "value": "induced comparable levels of resistance to Psm ES4326 in wild-type and pad4-1 plants"}, {"measurement": "camalexin levels in wild-type plants", "setting": "[2]", "value": "little effect on camalexin levels"}, {"measurement": "camalexin levels in pad4-1 plants", "setting": "[2]; vs not pretreated", "value": "much higher camalexin levels"}, {"measurement": "PR-1 mRNA level in pad4-1 plants", "setting": "[3]; 5 mM SA one day before Psm ES4326 infection, two days after infection", "value": "comparable to that in wild-type plants"}, {"measurement": "PR-1 expression in response to SA", "setting": "[3]; plants sprayed with 5 mM SA, wild-type and pad4-1, monitored for several days", "value": "induced similar levels of PR-1 expression in wild-type and pad4-1 plants"}, {"measurement": "PAD4 transcript levels in npr1-1 plants", "setting": "[4]; six and twelve hours after treatment", "value": "undetectable"}, {"measurement": "PAD4 transcript levels in wild-type plants", "setting": "[4]; wild-type (Col), six and twelve hours after treatment", "value": "markedly detectable"}, {"measurement": "PAD4 mRNA levels", "setting": "[4]; wild-type (Col, Ler), pad4-1, pad4-3, pad4-4 plants", "value": "increased rapidly after SA treatment"}]}
